Assay results reported in US11865110B2, “Thrombin inhibitors, formulations, and uses thereof” (VERSEON INTERNATIONAL CORPORATION, priority 2018, dated 2024).

How the values were obtained:
[1] = Mouse liver microsome stability; type: in vitro ADME, mouse (CD-1); conditions: pH 7.4; CD-1 mouse liver microsomes 0.5 mg/mL, NADPH, 37° C.; lower measurable bound 5
Protocol: In a 96-well Nunc™ plate, 1.5 μL of a 200 μM solution of the test compound in DMSO were placed in a well. This plate, the “Reaction Plate,” was then warmed to 37° C. in an oven. In a second 96-well Nunc™ plate, the “Quench Plate,” six wells were filled with 180 μL of an internal standard quench solution composed of 100 nM diclofenac in acetonitrile. These six wells correspond to the six time points for data collection: 0, 0.5, 5, 15, 30, and 60 minutes. “Assay Buffer” was prepared by combining 6.96 g potassium phosphate, dibasic, 1.36 g potassium phosphate, monobasic, and 0.30 g of magnesium chloride hexahydrate, then diluting to a final concentration of 500 mL in water and adjusting to pH 7.4, as needed. Assay Buffer was warmed to 37° C., and 12 mL were added to a 10-mg vial of NADPH. Then 300 μL of a 20 mg/mL liver microsome suspension were added to yield a 0.5 mg/mL liver microsome suspension. 300 μL of this liver microsome suspension was then added to the test compound solution in the Reaction Plate and mixed thoroughly with a pipette tip. At each time point, 30 μL of this mixture was transferred to the corresponding well of the Quench Plate. In between time points, the Reaction Plate was kept sealed and warmed in an incubator at 37° C. When the last time point had been completed, the quench plate was centrifuged at 4° C. at 1000×g for 10 minutes. Afterwards, 50 μL of the supernatant of each well was transferred to unique, corresponding wells of a 96-well Costar® plate, the “Analysis Plate,” filled with 150 μL of 50:50 acetonitrile:HyClone™ water. The Analysis Plate was then sealed with a pre-slit plate seal before analysis via an appropriate LCMS method with a 10 μL injection. The abstracted AUC data were then automatically plotted to calculate intrinsic clearance in μL/min/mg. This experiment was run alongside a positive and negative control. Due to the parameters of this procedure, one of skill in the art will appreciate that this assay has a lower measurable bound of 5 μL/min/mg; therefore, certain compounds have their clearances labeled as ≤5 μL/min/mg.

[2] = Mouse plasma stability; type: in vitro ADME, mouse (CD-1); conditions: CD-1 mouse plasma, 37° C., time points to 160 min; read-out: Mouse Plasma Stability t1/2
Protocol: Alongside a positive control of propantheline bromide, 8 μL of a 1 mM solution of each test compound in DMSO was placed in two wells of a Nunc™ 96-well plate called the “dilution plate.” To one well, 392 μL of HyClone™ water was added and mixed by a pipette. To the other well, 392 μL of mouse or rat plasma stabilized with sodium citrate purchased from Innovative Research was added and mixed by a pipette. The dilution plate was kept covered to reduce solvent evaporation and heated in an incubator at 37° C. At each of the time points enumerated below, the plate was removed from the incubator and 50 μL of the test compound/water or test compound/plasma solutions were transferred to a unique, corresponding well in a “quench plate” (96-well Costar® plate) that contains 150 μL of a quench solution that contains an internal standard (20 uM diclofenac in acetonitrile). The dilution plate was then returned to the incubator. This process was performed at 0, 5, 10, 20, 40, 80, and 160 minutes from the original mixing of the test compounds with the water or plasma in the dilution plate. After the quenching of the 160-minute time point, the quench plate was then centrifuged at 4° C. at 1000×g for 10 minutes. 100 μL of the supernatant of each well were then transferred to corresponding unique wells in a “read plate” (96-well Costar® plate) that were filled with 100 μL of HyClone™ water. The plate was then sealed and analyzed via UHPLC using a 10-μL sample injection through a Phenomenex® Kinetex column pre-equilibrated with the loading buffer (95:5 water:acetonitrile). The parameters were as follows. Mobile Phase A: water, 0.025% formic acid. Mobile Phase B: acetonitrile, 0.025% formic acid. Flow Rate: 0.5 mL/min. […] Half-life (t1/2) times were computed by using a chi-square analysis to fit the peak areas to an exponential decay model for compound concentration as a function of time.

[3] = molecular target: T1, thrombin (Homo sapiens, UniProt P00734); test: Human Thrombin Generation Assay (TGA); type: biochemical; conditions: concentration that reduces endogenous thrombin potential AUC by 50%; human plasma; read-out: ETP EC50
T1 construct: from tissue; host or cells: human plasma (thrombin generated in situ by tissue factor, phospholipids and CaCl2)
Protocol: Results for the human thrombin generation assay (TGA; not to be confused with “thermogravimetric analysis” which is used elsewhere and carries the same acronym. One of skill in the art will appreciate which meaning is intended based on context of the surrounding technical information.) were generated as follows. In a 96-well plate, 4 μL of 100, 33.3, 11.1, 3.7, 1.23, 0.41, 0.137, and 0.046 μM solutions of the test compounds in DMSO were added to sequential wells filled with 68 μL of a “TGA Working Solution.” See description of this solution as well as other relevant solutions below. The plate was incubated at room temperature for 10 minutes, whereupon 8 μL of warm “Substrate Solution” was added to each well, resulting in a 500 μM concentration of the substrate, Z-GGR-AMC (Z-Gly-Gly-Arg-7-amino-4-methylcoumarin·HCl), in each well. Fluorescence intensity data (Ex/Em 380/460 nm) collection began immediately using a Cytation™ or Synergy™ H1 96-well plate reader set to incubate the plate at 37° C. over the data collection time of 90 minutes following double-orbital shaking for a period of 4 seconds. Test compounds were measured parallel to blanks and controls, as well as to wells of the substrate in DMSO at various concentrations (2.50, 0.833, 0.278, 0.093 mM) in the buffers to generate a standard fluorescence curve. Data values were computed automatically, including the ETP EC50 value of the AUC, which is the concentration of the compound that reduces endogenous thrombin potential AUC by 50%.
The various solutions were prepared as follows. A HEPES/NaCl Assay buffer was made by combining 7.5 mL of 5M NaCl, 1.19 g 4-(2-hydroxyethyl)piperazine-1-ethanesulfonic acid (HEPES) and 230 mL of water. An “Innovin Master Solution” was made by combining 20 μL of Siemens Dade Innovin recombinant tissue factor and thromboplastin with 50 μL of 0.5 mM phospholipid-TGT acquired from DiaPharma® in 450 μL of the above HEPES/NaCl Assay buffer. This solution was then vortexed for a few seconds. Next the “Substrate Master Solution” was made by adding 3.2 mL DMSO to 100 mg of Z-GGR-AMC (Z-Gly-Gly-Arg-7-amino-4-methylcoumarin·HCl) and vortexing in a polystyrene tube. This solution was stored at −20° C. A “TGA Working Solution” was prepared by adding 6.2 mL of human plasma, 50 μL of the Innovin Master Solution, and 80 μL of phospholipids to 2.6 mL of HEPES/NaCl Assay buffer. A “Substrate Working Solution” was made immediately before addition to the assay plate by adding 200 μL of the above “Substrate Master Solution” to a pre-warmed (37° C.) mixture of 1.46 mL of HEPES/NaCl Assay buffer and 340 μL of 1M CaCl2).
For additional description of this assay, please see Robert, S. et al. ‘Is thrombin generation the new rapid, reliable and relevant pharmacological tool for the development of anticoagulant drugs?’2009, Pharmacol Res 59:160-6 as well as Hemker, H. C. et al. ‘Calibrated automated thrombin generation measurement in clotting plasma.’ 2003, Pathophysiol Haemost Thromb 33:4-15.

[4] = test system: malignant breast tumors; conditions: treated mice, cited from earlier work

Compound | EC50 [3] | further results
CC(C)(C)C(=O)n1nc(-c2cccn(CC(F)(F)C(=O)O)c2=O)cc1NCc1ccc(Cl)s1 [Compound 6, 3-[3-(5-{[(5-chlorothiophen-2-yl)methyl]amino}-1-(2,2-dimethylpropanoyl)-1H-pyrazol-3-yl)-2-oxo-1,2-dihydropyridin-1-yl]-2,2-difluoropropanoic acid] | 5400 nM | microsomal CLint at 1 µM [1]: 9 µL/min/mg; half-life at 20 µM [2]: 0.117 h
COCCn1cccc(-c2cc(NCc3ccc(Cl)s3)n(C(=O)C(C)(C)C)n2)c1=O [Compound 7, 3-(5-{[(5-chlorothiophen-2-yl)methyl]amino}-1-(2,2-dimethylpropanoyl)-1H-pyrazol-3-yl)-1-(2-methoxyethyl)-1,2-dihydropyridin-2-one] | 850 to 970 nM | microsomal CLint at 1 µM [1]: 290 µL/min/mg; half-life at 20 µM [2]: ≥ 5 h
CC(C)(CO)C(=O)n1nc(-c2cccn(CCC(=O)O)c2=O)cc1NCc1ccc(Cl)s1 [Compound 10, 3-[3-(5-{[(5-chlorothiophen-2-yl)methyl]amino}-1-(3-hydroxy-2,2-dimethylpropanoyl)-1H-pyrazol-3-yl)-2-oxo-1,2-dihydropyridin-1-yl]propanoic acid] | 1700 to 10000 nM | microsomal CLint at 1 µM [1]: 4 µL/min/mg; half-life at 20 µM [2]: 1.17 h
CCOC(=O)CCn1cccc(-c2cc(NCc3ccc(Cl)s3)n(C(=O)C(C)(C)C)n2)c1=O [Compound 15, ethyl 3-[3-(5-{[(5-chlorothiophen-2-yl)methyl]amino}-1-(2,2-dimethylpropanoyl)-1H-pyrazol-3-yl)-2-oxo-1,2-dihydropyridin-1-yl]propanoate] | 2900 nM | 
C=CCOC(=O)CCn1cccc(-c2cc(NCc3ccc(Cl)s3)n(C(=O)C(C)(C)C)n2)c1=O [Compound 16, prop-2-en-1-yl 3-[3-(5-{[(5-chlorothiophen-2-yl)methyl]amino}-1-(2,2-dimethylpropanoyl)-1H-pyrazol-3-yl)-2-oxo-1,2-dihydropyridin-1-yl]propanoate] | 1900 nM | 
CC(=O)OCCOC(=O)CCn1cccc(-c2cc(NCc3ccc(Cl)s3)n(C(=O)C(C)(C)C)n2)c1=O [Compound 17, 2-(acetyloxy)ethyl 3-[3-(5-{[(5-chlorothiophen-2-yl)methyl]amino}-1-(2,2-dimethylpropanoyl)-1H-pyrazol-3-yl)-2-oxo-1,2-dihydropyridin-1-yl]propanoate] | 1200 nM | 
CC(=O)OC(C)OC(=O)CCn1cccc(-c2cc(NCc3ccc(Cl)s3)n(C(=O)C(C)(C)C)n2)c1=O (stereo not shown) [Compound 18, 1-(acetyloxy)ethyl 3-[3-(5-{[(5-chlorothiophen-2-yl)methyl]amino}-1-(2,2-dimethylpropanoyl)-1H-pyrazol-3-yl)-2-oxo-1,2-dihydropyridin-1-yl]propanoate] | 1300 nM | 
Cc1nc(C)c(COC(=O)CCn2cccc(-c3cc(NCc4ccc(Cl)s4)n(C(=O)C(C)(C)C)n3)c2=O)nc1C [Compound 20, (3,5,6-trimethylpyrazin-2-yl)methyl 3-[3-(5-{[(5-chlorothiophen-2-yl)methyl]amino}-1-(2,2-dimethylpropanoyl)-1H-pyrazol-3-yl)-2-oxo-1,2-dihydropyridin-1-yl]propanoate] | 2400 nM | 
CC(C)[C@H](NC(=O)OC(C)(C)C)C(=O)OCOC(=O)CCn1cccc(-c2cc(NCc3ccc(Cl)s3)n(C(=O)C(C)(C)C)n2)c1=O [Compound 21, ({3-[3-(5-{[(5-chlorothiophen-2-yl)methyl]amino}-1-(2,2-dimethylpropanoyl)-1H-pyrazol-3-yl)-2-oxo-1,2-dihydropyridin-1-yl]propanoyl}oxy)methyl (2S)-2-{[(tert-butoxy)carbonyl]amino}-3-methylbutanoate] | 4800 nM | 
[2H]C([2H])(C(=O)O)C([2H])([2H])n1cccc(-c2cc(NCc3ccc(Cl)s3)n(C(=O)C(C)(C)C)n2)c1=O [Compound 22, 3-[3-(5-{[(5-chlorothiophen-2-yl)methyl]amino}-1-(2,2-dimethylpropanoyl)-1H-pyrazol-3-yl)-2-oxo-1,2-dihydropyridin-1-yl](2H4)propanoic acid] | 1900 nM | 
[2H]C([2H])(Nc1cc(-c2cccn(CCC(=O)O)c2=O)nn1C(=O)C(C)(C)C)c1ccc(Cl)s1 [Compound 24, 3-[3-(5-{[(5-chlorothiophen-2-yl)(2H2)methyl]amino}-1-(2,2-dimethylpropanoyl)-1H-pyrazol-3-yl)-2-oxo-1,2-dihydropyridin-1-yl]propanoic acid] | 2400 nM | 
CCCCCCOC(=O)N=C(N)c1ccc(NCc2nc3cc(C(=O)N(CCC(=O)OCC)c4ccccn4)ccc3n2C)cc1 [dabigatran etexilate] |  | reduction in tumor volume ([4]; at 4 weeks): 50%; reduction of tumor cells in the blood and liver micrometastases [4]: 50-60%
